{"source": "patent US20260355361A1", "about": "“METHODS FOR DIAGNOSIS AND TREATMENT OF PULMONARY HYPERTENSION” (THE METHODIST HOSPITAL, priority 2022, published 2026)", "biological_target": "VEGFr2 (Rattus norvegicus, UniProt O08775)", "sequence (O08775 20-1343)": "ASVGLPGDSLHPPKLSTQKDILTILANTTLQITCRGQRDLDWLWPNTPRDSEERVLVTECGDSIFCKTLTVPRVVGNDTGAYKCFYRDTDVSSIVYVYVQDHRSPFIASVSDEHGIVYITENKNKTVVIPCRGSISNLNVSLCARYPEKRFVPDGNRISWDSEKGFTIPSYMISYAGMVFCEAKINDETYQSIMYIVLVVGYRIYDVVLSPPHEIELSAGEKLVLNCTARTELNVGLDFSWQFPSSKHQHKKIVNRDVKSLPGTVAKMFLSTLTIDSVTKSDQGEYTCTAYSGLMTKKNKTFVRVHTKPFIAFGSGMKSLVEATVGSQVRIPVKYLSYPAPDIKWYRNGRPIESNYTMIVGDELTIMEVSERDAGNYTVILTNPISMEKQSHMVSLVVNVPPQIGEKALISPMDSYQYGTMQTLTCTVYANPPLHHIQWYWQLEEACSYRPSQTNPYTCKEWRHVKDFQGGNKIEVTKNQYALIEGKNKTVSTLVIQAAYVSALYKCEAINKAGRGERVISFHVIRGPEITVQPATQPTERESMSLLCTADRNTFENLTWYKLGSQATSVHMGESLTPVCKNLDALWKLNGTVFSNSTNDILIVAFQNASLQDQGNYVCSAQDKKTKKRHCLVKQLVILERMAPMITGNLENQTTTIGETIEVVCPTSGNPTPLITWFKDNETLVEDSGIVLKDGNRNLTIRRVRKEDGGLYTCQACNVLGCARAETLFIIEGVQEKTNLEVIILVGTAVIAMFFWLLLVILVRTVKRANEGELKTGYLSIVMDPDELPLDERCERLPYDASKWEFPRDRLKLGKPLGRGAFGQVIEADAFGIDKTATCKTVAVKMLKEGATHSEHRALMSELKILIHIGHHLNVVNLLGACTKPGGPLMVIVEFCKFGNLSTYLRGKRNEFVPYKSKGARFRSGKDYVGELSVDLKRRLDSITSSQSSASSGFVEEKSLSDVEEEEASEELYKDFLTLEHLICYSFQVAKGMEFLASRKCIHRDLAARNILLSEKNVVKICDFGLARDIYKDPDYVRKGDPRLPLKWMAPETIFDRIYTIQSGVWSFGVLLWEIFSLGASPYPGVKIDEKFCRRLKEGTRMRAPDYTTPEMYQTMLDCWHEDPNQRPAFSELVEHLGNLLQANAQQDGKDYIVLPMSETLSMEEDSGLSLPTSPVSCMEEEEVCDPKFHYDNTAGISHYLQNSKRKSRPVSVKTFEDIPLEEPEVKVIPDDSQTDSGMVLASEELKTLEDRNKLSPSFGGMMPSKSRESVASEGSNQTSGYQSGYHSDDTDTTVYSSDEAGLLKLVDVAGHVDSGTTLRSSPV", "assay": "PET imaging of ^18F-ZD-G2 versus ^18FDG in MCT rat model of PAH", "format": "in vivo", "details": "early stage of PAH (MCT-10 days and MCT-2 weeks); PET at 60 minutes after injection", "protocol": "Images of ^18F-ZD-G2 probe and ^18FDG were compared. Rats exposed to monocrotaline were used to develop pulmonary arterial hypertension rat model (MCT), while healthier rats were used as a control group.\nImages of ^18F-ZD-G2 probe and ^18FDG were compared.\nA PET imaging study was further performed with ^18F-ZD-G2 using MCT rat model as previous described. Healthy rats were used as control. Clinically used ^18FDG PET imaging was also performed on both groups of […] following the same imaging protocol for comparison."}
{"smiles": "OC[C@H]1OC(O)[C@H]([18F])[C@@H](O)[C@@H]1O", "note": "(stereo partly shown) [^18FDG]", "values": [{"measurement": "Lung uptake, MCT versus control", "result": "no obvious difference"}]}
